From publication PMC6576746, “Rational discovery of dual-indication multi-target PDE/Kinase inhibitor for precision anti-cancer therapy using structural systems pharmacology” (PLoS Computational Biology, 2019)

How the values were obtained:
Test in all cases: biochemical
Set-up in all cases: DiscoverX KinomeScan competition binding assay across human kinases; per cent of control at 10 and 100 uM
MTOR = MTOR (Homo sapiens, UniProt P42345); conditions: competition binding, % of control; read-out: Percent Control (100 uM Levosimendan)
Method in brief: (§1)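 KinomeScan competition binding was run across a human kinase panel at 10 μM and 100 μM levosimendan. Results are %control = (test − positive control)/(negative control − positive control) × 100.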

DMPK = DMPK (Homo sapiens, UniProt Q09013); conditions: competition binding, % of control
Method in brief: as §1

[1] = biological target: T1, ABL1(F317I)-phosphorylated (Homo sapiens, UniProt P00519, F317I); conditions: competition binding, % of control; read-out: Percent Control (100 uM Levosimendan)
T1 construct: phosphorylated
Method in brief: as §1

p38-alpha = biological target: T2, p38-alpha (Homo sapiens, UniProt Q16539); conditions: competition binding, % of control; read-out: Percent Control (100 uM Levosimendan)
T2 construct: gene MAPK14
Method in brief: as §1

MAPKAPK5 = MAPKAPK5 (Homo sapiens, UniProt Q8IW41); conditions: competition binding, % of control; read-out: Percent Control (100 uM Levosimendan)
Method in brief: as §1

EPHA8 = EPHA8 (Homo sapiens, UniProt P29322); conditions: competition binding, % of control; read-out: Percent Control (100 uM Levosimendan)
Method in brief: as §1

WEE1 = WEE1 (Homo sapiens, UniProt P30291); conditions: competition binding, % of control; read-out: Percent Control (100 uM Levosimendan)
Method in brief: as §1

TAOK1 = TAOK1 (Homo sapiens, UniProt Q7L7X3); conditions: competition binding, % of control; read-out: Percent Control (100 uM Levosimendan)
Method in brief: as §1

ULK1 = ULK1 (Homo sapiens, UniProt O75385); conditions: competition binding, % of control; read-out: Percent Control (100 uM Levosimendan)
Method in brief: as §1

MELK = MELK (Homo sapiens, UniProt Q14680); conditions: competition binding, % of control; read-out: Percent Control (100 uM Levosimendan)
Method in brief: as §1

LATS2 = LATS2 (Homo sapiens, UniProt Q9NRM7); conditions: competition binding, % of control; read-out: Percent Control (100 uM Levosimendan)
Method in brief: as §1

LCK = LCK (Homo sapiens, UniProt P06239); conditions: competition binding, % of control
Method in brief: as §1

PRP4 = biological target: T3, PRP4 (Homo sapiens, UniProt Q13523); conditions: competition binding, % of control; read-out: Percent Control (100 uM Levosimendan)
T3 construct: gene PRPF4B
Method in brief: as §1

CSNK1E = CSNK1E (Homo sapiens, UniProt P49674); conditions: competition binding, % of control; read-out: Percent Control (100 uM Levosimendan)
Method in brief: as §1

HIPK3 = HIPK3 (Homo sapiens, UniProt Q9H422); conditions: competition binding, % of control; read-out: Percent Control (100 uM Levosimendan)
Method in brief: as §1

MEK4 = biological target: T4, MEK4 (Homo sapiens, UniProt P45985); conditions: competition binding, % of control; read-out: Percent Control (100 uM Levosimendan)
T4 construct: gene MAP2K4
Method in brief: as §1

CASK = CASK (Homo sapiens, UniProt O14936); conditions: competition binding, % of control; read-out: Percent Control (100 uM Levosimendan)
Method in brief: as §1

MKNK2 = MKNK2 (Homo sapiens, UniProt Q9HBH9); conditions: competition binding, % of control
Method in brief: as §1

BLK = BLK (Homo sapiens, UniProt P51451); conditions: competition binding, % of control
Method in brief: as §1

[2] = read-out: Percent Control (10 uM Levosimendan)
[3] = read-out: Percent Control (100 uM Levosimendan)

Chain of BLK (P51451 whole entry): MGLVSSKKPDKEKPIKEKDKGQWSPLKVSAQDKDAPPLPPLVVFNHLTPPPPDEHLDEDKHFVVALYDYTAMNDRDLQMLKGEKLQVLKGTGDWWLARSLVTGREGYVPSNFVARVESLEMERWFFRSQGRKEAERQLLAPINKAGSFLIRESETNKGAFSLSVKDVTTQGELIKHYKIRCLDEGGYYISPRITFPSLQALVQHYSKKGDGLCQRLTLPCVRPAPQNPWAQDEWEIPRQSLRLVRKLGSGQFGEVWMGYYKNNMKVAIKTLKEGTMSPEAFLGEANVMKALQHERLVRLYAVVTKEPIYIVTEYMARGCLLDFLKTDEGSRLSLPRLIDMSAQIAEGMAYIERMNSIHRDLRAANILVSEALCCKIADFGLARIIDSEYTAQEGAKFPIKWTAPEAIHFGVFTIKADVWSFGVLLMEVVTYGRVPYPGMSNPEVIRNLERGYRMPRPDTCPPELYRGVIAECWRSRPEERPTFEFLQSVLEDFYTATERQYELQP
Chain of DMPK (Q09013 whole entry): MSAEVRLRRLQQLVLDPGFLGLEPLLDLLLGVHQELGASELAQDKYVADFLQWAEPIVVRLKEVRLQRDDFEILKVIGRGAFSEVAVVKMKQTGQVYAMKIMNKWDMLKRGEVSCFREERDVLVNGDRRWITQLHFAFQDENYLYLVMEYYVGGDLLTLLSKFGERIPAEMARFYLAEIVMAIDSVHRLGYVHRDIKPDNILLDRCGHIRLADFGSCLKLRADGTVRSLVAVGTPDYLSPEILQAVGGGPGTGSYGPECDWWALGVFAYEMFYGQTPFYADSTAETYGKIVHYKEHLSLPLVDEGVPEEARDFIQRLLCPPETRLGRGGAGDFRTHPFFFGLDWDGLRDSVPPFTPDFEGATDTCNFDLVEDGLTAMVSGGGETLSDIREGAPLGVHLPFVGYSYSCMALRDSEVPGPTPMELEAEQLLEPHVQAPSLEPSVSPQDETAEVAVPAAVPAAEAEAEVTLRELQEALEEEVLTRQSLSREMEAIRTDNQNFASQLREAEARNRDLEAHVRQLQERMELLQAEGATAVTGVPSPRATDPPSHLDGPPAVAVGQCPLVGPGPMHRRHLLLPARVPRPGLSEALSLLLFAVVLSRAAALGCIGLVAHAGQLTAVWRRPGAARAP
Chain of MKNK2 (Q9HBH9 whole entry): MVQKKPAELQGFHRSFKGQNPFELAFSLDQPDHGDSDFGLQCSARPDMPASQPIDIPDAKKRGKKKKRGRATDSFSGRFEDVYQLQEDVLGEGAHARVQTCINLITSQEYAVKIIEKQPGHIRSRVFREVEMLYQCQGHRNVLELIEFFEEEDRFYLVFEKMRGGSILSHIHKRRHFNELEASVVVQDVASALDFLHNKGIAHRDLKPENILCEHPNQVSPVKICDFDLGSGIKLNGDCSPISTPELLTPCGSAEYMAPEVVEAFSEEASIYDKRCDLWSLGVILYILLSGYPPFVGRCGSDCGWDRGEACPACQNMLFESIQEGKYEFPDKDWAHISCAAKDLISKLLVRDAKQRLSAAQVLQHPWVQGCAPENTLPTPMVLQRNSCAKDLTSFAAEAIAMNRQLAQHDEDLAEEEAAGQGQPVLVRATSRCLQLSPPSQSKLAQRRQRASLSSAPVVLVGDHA
Chain of LCK (P06239 whole entry): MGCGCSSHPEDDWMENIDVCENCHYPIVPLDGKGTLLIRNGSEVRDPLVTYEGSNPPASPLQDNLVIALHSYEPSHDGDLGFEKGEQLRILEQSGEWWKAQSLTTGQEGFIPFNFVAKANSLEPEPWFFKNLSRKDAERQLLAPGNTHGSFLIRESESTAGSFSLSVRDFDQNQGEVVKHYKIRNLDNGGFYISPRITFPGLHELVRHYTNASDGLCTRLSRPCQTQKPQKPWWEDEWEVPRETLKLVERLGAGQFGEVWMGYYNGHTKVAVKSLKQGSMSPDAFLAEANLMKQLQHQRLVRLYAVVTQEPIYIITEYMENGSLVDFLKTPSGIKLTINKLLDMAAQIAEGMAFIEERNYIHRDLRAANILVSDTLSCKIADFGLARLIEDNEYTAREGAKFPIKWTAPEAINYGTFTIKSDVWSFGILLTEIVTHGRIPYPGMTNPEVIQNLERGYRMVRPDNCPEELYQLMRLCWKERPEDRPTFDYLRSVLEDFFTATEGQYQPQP
Chain of TAOK1 (Q7L7X3 whole entry): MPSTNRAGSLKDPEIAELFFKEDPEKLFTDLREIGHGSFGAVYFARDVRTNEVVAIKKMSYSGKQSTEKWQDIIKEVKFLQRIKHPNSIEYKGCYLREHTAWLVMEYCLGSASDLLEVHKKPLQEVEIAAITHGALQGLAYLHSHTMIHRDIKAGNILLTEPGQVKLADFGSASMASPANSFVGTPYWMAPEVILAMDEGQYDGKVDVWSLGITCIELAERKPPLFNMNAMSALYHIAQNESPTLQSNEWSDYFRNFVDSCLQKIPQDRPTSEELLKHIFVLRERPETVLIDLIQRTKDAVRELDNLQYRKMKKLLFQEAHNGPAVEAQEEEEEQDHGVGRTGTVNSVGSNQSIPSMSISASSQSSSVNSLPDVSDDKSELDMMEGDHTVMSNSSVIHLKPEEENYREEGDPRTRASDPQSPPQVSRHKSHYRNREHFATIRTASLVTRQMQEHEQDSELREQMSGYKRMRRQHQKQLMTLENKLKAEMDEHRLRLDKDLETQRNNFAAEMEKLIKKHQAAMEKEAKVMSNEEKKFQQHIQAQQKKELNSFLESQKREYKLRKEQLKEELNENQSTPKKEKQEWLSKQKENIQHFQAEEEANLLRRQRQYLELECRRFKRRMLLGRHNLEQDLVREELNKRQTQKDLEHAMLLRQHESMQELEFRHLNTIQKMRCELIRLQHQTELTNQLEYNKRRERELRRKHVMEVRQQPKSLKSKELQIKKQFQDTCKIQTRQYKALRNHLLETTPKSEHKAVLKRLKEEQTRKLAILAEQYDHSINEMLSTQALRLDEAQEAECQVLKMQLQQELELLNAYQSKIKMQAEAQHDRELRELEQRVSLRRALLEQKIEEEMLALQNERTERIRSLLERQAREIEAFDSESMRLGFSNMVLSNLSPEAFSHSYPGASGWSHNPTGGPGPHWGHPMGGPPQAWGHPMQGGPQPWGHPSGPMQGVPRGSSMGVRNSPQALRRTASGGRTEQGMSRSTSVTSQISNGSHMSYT
Chain of WEE1 (P30291 whole entry): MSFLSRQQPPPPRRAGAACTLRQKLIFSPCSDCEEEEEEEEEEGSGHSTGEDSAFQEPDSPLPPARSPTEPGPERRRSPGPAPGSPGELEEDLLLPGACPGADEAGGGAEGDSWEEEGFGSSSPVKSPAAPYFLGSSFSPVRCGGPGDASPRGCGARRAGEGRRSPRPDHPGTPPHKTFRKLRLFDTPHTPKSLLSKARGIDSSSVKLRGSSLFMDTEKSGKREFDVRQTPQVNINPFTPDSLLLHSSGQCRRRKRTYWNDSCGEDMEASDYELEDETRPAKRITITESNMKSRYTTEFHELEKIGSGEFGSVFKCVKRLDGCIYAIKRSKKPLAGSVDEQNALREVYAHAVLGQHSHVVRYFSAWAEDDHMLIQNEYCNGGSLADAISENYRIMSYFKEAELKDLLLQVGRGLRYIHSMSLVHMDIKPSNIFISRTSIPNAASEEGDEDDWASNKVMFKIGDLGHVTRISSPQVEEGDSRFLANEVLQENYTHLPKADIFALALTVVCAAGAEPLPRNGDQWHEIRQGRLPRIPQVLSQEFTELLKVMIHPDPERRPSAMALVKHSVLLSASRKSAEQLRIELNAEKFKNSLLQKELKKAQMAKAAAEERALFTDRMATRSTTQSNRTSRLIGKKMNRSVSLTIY
Chain of MAPKAPK5 (Q8IW41 whole entry): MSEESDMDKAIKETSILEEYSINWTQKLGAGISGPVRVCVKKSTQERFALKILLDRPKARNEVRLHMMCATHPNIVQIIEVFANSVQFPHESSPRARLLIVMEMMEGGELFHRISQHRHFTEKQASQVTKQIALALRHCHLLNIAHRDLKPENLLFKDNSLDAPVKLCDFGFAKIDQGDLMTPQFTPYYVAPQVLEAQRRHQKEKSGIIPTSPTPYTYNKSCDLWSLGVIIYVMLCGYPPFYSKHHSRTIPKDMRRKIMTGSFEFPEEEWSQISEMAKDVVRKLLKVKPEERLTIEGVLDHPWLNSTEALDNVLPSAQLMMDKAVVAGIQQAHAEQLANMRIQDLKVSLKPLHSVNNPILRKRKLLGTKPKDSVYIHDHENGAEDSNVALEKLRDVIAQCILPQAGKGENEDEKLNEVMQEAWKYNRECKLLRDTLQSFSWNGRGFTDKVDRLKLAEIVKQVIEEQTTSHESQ
T2 sequence (Q16539 whole entry): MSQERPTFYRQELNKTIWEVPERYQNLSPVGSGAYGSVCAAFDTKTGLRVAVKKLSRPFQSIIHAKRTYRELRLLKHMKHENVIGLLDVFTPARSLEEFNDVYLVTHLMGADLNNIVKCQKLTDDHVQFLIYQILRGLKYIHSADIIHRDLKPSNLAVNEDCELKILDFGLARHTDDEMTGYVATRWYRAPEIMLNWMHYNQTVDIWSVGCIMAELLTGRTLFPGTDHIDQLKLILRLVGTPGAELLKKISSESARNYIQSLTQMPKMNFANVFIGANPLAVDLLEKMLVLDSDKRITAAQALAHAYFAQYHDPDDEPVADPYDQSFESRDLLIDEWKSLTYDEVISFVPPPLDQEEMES
Chain of CSNK1E (P49674 whole entry): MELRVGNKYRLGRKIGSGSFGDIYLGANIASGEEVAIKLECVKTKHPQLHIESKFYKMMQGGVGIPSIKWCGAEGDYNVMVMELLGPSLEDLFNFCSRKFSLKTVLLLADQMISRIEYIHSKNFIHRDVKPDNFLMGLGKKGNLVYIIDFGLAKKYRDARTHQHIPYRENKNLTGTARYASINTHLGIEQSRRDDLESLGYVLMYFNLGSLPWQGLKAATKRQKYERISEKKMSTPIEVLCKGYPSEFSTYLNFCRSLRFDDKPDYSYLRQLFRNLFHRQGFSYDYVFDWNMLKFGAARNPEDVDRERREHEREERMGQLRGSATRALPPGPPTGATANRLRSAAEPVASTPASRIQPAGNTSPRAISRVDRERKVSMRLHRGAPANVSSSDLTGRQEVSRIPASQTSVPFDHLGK

`C[C@@H]1CC(=O)NN=C1c1ccc(NN=C(C#N)C#N)cc1` [levosimendan] gave a remaining binding at 100 µM (MTOR) of 100%, a remaining binding at 10 µM (DMPK; [2]) of 100% and a remaining binding at 100 µM (DMPK; [3]) of 29%. The remaining binding at 100 µM [1] was 100%, the remaining binding at 100 µM (p38-alpha) was 97% and the remaining binding at 100 µM (MAPKAPK5) was 100%. It also gave a remaining binding at 100 µM (EPHA8) of 91%, a remaining binding at 100 µM (WEE1) of 100% and a remaining binding at 100 µM (TAOK1) of 100%. It also gave a remaining binding at 100 µM (ULK1) of 95%, a remaining binding at 100 µM (MELK) of 100% and a remaining binding at 100 µM (LATS2) of 100%. For the same molecule, the remaining binding at 10 µM (LCK; [2]) was 89%, the remaining binding at 100 µM (LCK; [3]) was 46% and the remaining binding at 100 µM (PRP4) was 100%. The remaining binding at 100 µM (CSNK1E) was 63%, the remaining binding at 100 µM (HIPK3) was 100% and the remaining binding at 100 µM (MEK4) was 92%. The remaining binding at 100 µM (CASK) was 88%, the remaining binding at 10 µM (MKNK2; [2]) was 59% and the remaining binding at 100 µM (MKNK2; [3]) was 7.5%. The remaining binding at 10 µM (BLK; [2]) was 79% and the remaining binding at 100 µM (BLK; [3]) was 50%.
